Assay results: patent publication US10745719B2, “Enzymes and methods for dealkylation of substrates” (Alliance for Sustainable Energy, LLC, priority 2015, dated 2020)

Key:
P. putida KT2440/pCJ021 = test: Growth on and metabolism of aromatic substrate by P. putida KT2440/pCJ021 (cytochrome P450 O-dealkylase and reductase) in M9 minimal medium; type: cell-based, Pseudomonas putida
Excerpt: (§1) The genes encoding the cytochrome P450 protein and the co-transcribed reductase were amplified from Amycolatopsis sp. ATCC 39116 DNA using primers oCJ169 and oCJ170 (see Table 2) and the product assembled using Gibson Assembly Master Mix (New England BioLabs) into the broad host-range vector pBTL-2, which was amplified using primers oCJ160 and oCJ161, resulting in pCJ021. pBTL-2 (a gift from Ryan Gill; Addgene plasmid #22806) is a broad host-range vector that drives expression of inserted genes using the lac promoter, which is constitutively expressed in Pseudomonas putida KT2440. The cytochrome P450 gene alone was also amplified using oCJ169 and oCJ206 and assembled it into the same vector (resulting in pCJ024). pCJ021 was then transformed into P. putida KT2440 to generate P. putida KT2440/pCJ021.
HPLC analysis was performed by injecting 6 μL of 0.2 μm filtered culture supernatant onto an Agilent 1100 series system equipped with a Phenomenex Rezex RFQ-Fast Acid H+ (8%) column and a cation H+ guard cartridge (Bio-Rad Laboratories) at 85° C. run using a mobile phase of 0.01 N sulfuric acid at a flow rate of 1.0 mL/min and a diode array detector to measure absorbance at 210 nm. Analytes were identified by comparing retention times and spectral profiles with pure standards. HPLC chromatograms show milli-absorbance units (mAU) on the Y axis and retention time (minutes) on the X axis.
(§2) P. putida KT2440 can readily metabolize catechol for growth, so a functional enzyme with O-dealkylase activity would convert guaiacol or guaethol to catechol and enable this organism to metabolize guaiacol or guaethol for growth, which it is not natively capable of.
HPLC analyses show the disappearance of guaiacol in a culture of P. putida KT2440/pCJ021 grown on M9 minimal medium containing guaiacol and the lack of guaiacol catabolism by native P. putida KT2440 (FIG. 6).

[1] = system: P. putida KT2440 transformed with pCJ024; test: Metabolism of guaiacol by P. putida KT2440 transformed with pCJ024 (cytochrome P450 gene alone); type: cell-based, Pseudomonas putida; conditions: M9 minimal medium, 5 mM guaiacol
Excerpt: as §1, §2

[2] = 5 mM guaiacol as sole source of carbon and energy

SMILES	OD600 reached (P. putida KT2440/pCJ021; [2])	metabolism of substrate (P. putida KT2440/pCJ021; [2])	metabolism of substrate [1]	metabolism of substrate (P. putida KT2440/pCJ021; 5 mM guaethol as sole source of carbon and energy, 72 hours)	OD600 reached (P. putida KT2440/pCJ021; 5 mM guaethol, growth on the catechol produced)
COc1ccccc1O [guaiacol, 2-methoxyphenol]	over 0.5	metabolizing the guaiacol completely	neither of these strains was able to metabolize guaiacol	–	–
CCOc1ccccc1O [guaethol, 2-ethoxyphenol]	–	–	–	able to metabolize the guaethol	7
